Reference: the supplement of paper PMC11208160

Assay: recombinant barcode read abundance after kanamycin selection (control-corrected) (log10(CPM+1)); higher = more efficient recombination; sequences stand for … in AGTGCAGAGAAAATCGGCCAGTTTTCTCTGCCTGCAGTCCGCATGCCGT…AGATTTATGCAGCGGACTGCCTTTCTCCCAAAGTGATAAACCGGACAGTATCATGGACCGGTTTTCCCGGTAATCCGTATTTGCAAGGTTGGTTTCACT; site = the 11-nt target
In short: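 Pooled E. coli screen pairing targets with IS621 bridge RNA target-binding loops. Each oligo (promoter, target, barcode, J23119-driven first 104 bridge RNA bases) was Gibson-cloned into a vector with the remaining 73 bp and T7-inducible recombinase, then co-electroporated with a donor plasmid. Two replicates each were plated on chloramphenicol/ampicillin LB agar (control) or chloramphenicol/ampicillin/kanamycin with 0.1 mM IPTG. Recombination efficiency is recombinant-junction barcode counts as CPM, averaged, control-corrected, reported as log10(CPM+1).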
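Note: IS621 recombinase and bridge RNA in Escherichia coli cells.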

“TAGCATGCTTGGGTTCTAACCTGTTGCAT (site TAGCATGCTCT)” and “TAGCATGCTTGGGTTCTAACCTGTTGCAT (site TAGCATGCTGT)” are within 0.2 log units of each other in “recombinant barcode read abundance (log10)” value: 0.204 for the first, 0.228 for the second.

“TAGCATGCTTGGGTTCTAACCTGTTGCAT (site TAGCATGCTTT)” and “TAGCCATCTTGGGTTCTAACCTGTTGCTC (site TAGACATCTGA)” are within 0.2 log units of each other in “recombinant barcode read abundance (log10)” value: 0.065 for the first, 0.0329 for the second.

“TAGCCATCTTGGGTTCTAACCTGTTGCTC (site TAGCCATCTGA)” and “TAGCCATCTTGGGTTCTAACCTGTTGCTC (site TAGGCATCTGA)” are within 0.2 log units of each other in “recombinant barcode read abundance (log10)” value: 0.508 for the first, 0.404 for the second.

“TAGCCATCTTGGGTTCTAACCTGTTGCTC (site TAGTCATCTGA)” and “TAGCCTACTTGGGTTCTAACCTGTTGCGG (site TAGCCTACTAC)” are within 0.2 log units of each other in “recombinant barcode read abundance (log10)” value: 0 for the first, 0.0228 for the second.

Going from “TAGCCTACTTGGGTTCTAACCTGTTGCGG (site TAGCCTACTCC)” to “TAGCCTACTTGGGTTCTAACCTGTTGCGG (site TAGCCTACTGC)”, the “recombinant barcode read abundance (log10)” value falls from 1.41 to 0.0519.

“TAGCCTACTTGGGTTCTAACCTGTTGCGG (site TAGCCTACTTC)” and “TAGCCTGCTTGGGTTCTAACCTGTTGCCT (site TAGACTGCTAG)” are within 0.2 log units of each other in “recombinant barcode read abundance (log10)” value: 0.00783 for the first, 0.0305 for the second.

Going from “TAGCCTGCTTGGGTTCTAACCTGTTGCCT (site TAGCCTGCTAG)” to “TAGCCTGCTTGGGTTCTAACCTGTTGCCT (site TAGGCTGCTAG)”, the “recombinant barcode read abundance (log10)” value falls from 1.35 to 0.026.

“TAGCCTGCTTGGGTTCTAACCTGTTGCCT (site TAGTCTGCTAG)” and “TAGCGCACTTGGGTTCTAACCTGTTGCGG (site TAGCACACTCC)” are within 0.2 log units of each other in “recombinant barcode read abundance (log10)” value: 0.177 for the first, 0.28 for the second.

First: TAGCGCACTTGGGTTCTAACCTGTTGCGG (site TAGCCCACTCC)
Second: TAGCGCACTTGGGTTCTAACCTGTTGCGG (site TAGCGCACTCC)
The “recombinant barcode read abundance (log10)” value of the first is lower: 0.076 for the first, 1.33 for the second.

First: TAGCGCACTTGGGTTCTAACCTGTTGCGG (site TAGCTCACTCC)
Second: TAGCGGCCTTGGGTTCTAACCTGTTGCCT (site TAACGGCCTAG)
The “recombinant barcode read abundance (log10)” value of the first is lower: 0.13 for the first, 0.651 for the second.

Going from “TAGCGGCCTTGGGTTCTAACCTGTTGCCT (site TACCGGCCTAG)” to “TAGCGGCCTTGGGTTCTAACCTGTTGCCT (site TAGCGGCCTAG)”, the “recombinant barcode read abundance (log10)” value rises from 0.0223 to 0.428.

First: TAGCGGCCTTGGGTTCTAACCTGTTGCCT (site TATCGGCCTAG)
Second: TAGCGTACTTGGGTTCTAACCTGTTGCGT (site TAGCGTACTAC)
The “recombinant barcode read abundance (log10)” value of the first is lower: 0.0926 for the first, 0.805 for the second.

Compared with “TAGCGTACTTGGGTTCTAACCTGTTGCGT (site TAGCGTACTCC)”, “TAGCTCCCTTGGGTTCTAACCTGTTGCCC (site TAGCTCCCTAG)” is higher in “recombinant barcode read abundance (log10)” value: 0.0572 for the first, 0.279 for the second.

Going from “TAGCTCCCTTGGGTTCTAACCTGTTGCCC (site TAGCTCCCTCG)” to “TAGCTCCCTTGGGTTCTAACCTGTTGCCC (site TAGCTCCCTGG)”, the “recombinant barcode read abundance (log10)” value rises from 0.115 to 0.872.

“TAGCTCCCTTGGGTTCTAACCTGTTGCCC (site TAGCTCCCTTG)” and “TAGCTGACTTGGGTTCTAACCTGTTGCCC (site GTTTGACCTCC)” are within 0.2 log units of each other in “recombinant barcode read abundance (log10)” value: 0.0924 for the first, 0.136 for the second.

Compared with “TAGCTGACTTGGGTTCTAACCTGTTGCCC (site TAGCTGACTGG)”, “TAGCTGTCTTGGGTTCTAACCTGTTGCGT (site AATCTGTCTAC)” is lower in “recombinant barcode read abundance (log10)” value: 0.932 for the first, 0.106 for the second.

First: TAGCTGTCTTGGGTTCTAACCTGTTGCGT (site TAGCTGTCTAC)
Second: TAGGATACTTGGGTTCTAACCTGTTGCAC (site TAGGATACTAT)
The “recombinant barcode read abundance (log10)” value of the first is higher: 2.29 for the first, 0.34 for the second.

Going from “TAGGATACTTGGGTTCTAACCTGTTGCAC (site TAGGATACTCT)” to “TAGGATACTTGGGTTCTAACCTGTTGCAC (site TAGGATACTGT)”, the “recombinant barcode read abundance (log10)” value rises from 0.729 to 2.08.

“TAGGATACTTGGGTTCTAACCTGTTGCAC (site TAGGATACTTT)” and “TAGGATACTTGGGTTCTAACCTGTTGCAG (site TAGGATACTAT)” are within 0.2 log units of each other in “recombinant barcode read abundance (log10)” value: 0.107 for the first, 0.29 for the second.

Compared with “TAGGATACTTGGGTTCTAACCTGTTGCAG (site TAGGATACTCT)”, “TAGGATACTTGGGTTCTAACCTGTTGCAG (site TAGGATACTGT)” is lower in “recombinant barcode read abundance (log10)” value: 2.5 for the first, 0.106 for the second.

Compared with “TAGGATACTTGGGTTCTAACCTGTTGCAG (site TAGGATACTTT)”, “TAGGATACTTGGGTTCTAACCTGTTGCAT (site TAGGATACTAT)” is higher in “recombinant barcode read abundance (log10)” value: 0.351 for the first, 1.55 for the second.

In the case of “TAGGATACTTGGGTTCTAACCTGTTGCAT (site TAGGATACTCT)”, the “recombinant barcode read abundance (log10)” value is reported as 0.583.
